Read-outs that look alike come from different tables or passages of the source.

Assay [1] concerns the target T1, peripheral-type benzodiazepine sites on FEL cells (Mus musculus, UniProt P50637).
T1 construct: endogenous in cells; host or cells: DS 19 Friend erythroleukemia cell line (FEL)
In words: Inhibition of binding of 7-chloro-5-(4-chlorophenyl)-1,3-dihydro-1-methyl-2H-1,4-benzodiazepine-2-one to FEL cells. The source says:
(§1) Of twenty five (25) of the benzodiazepines tested it was observed that sixteen induced differentiation (weakly to strongly active) in a concentration-dependent manner. The concentration of each compound required to induce 50%, 20% or 10% of the FEL cells along with the half-maximal concentrations for each compound required to inhibit 50% of the binding of 7-chloro-5-(4-chlorophenyl)-1,3-dihydro-1-methyl-2H-1,4-benzodiazepine-2-one to the FEL cells (IC50) is listed in the following table: […]

Assay [2] deals with DS 19 Friend erythroleukemia cell line (FEL). In words: Induction of differentiation of FEL cells (hemoglobin synthesis, benzidine staining). In kind it is cell-based, mouse. The following applies: for EC50 / EC20 / EC10: Mus musculus, 120 h, 5 days; for EC50: read-out: ED50 (concentration required to induce 50% of the FEL cells); for EC20: read-out: ED20 (concentration required to induce 20% of the FEL cells); for EC10: read-out: ED10 (concentration required to induce 10% of the FEL cells). On the procedure: A DS 19 Friend erythroleukemia cell line (FEL) was utilized as the model for studying the effects of various benzodiazepines on cellular differentiation. The Friend lines were derived from mouse (DBA/2) spleen cells infected by the Friend virus complex. The FEL cells are a widely used model system for studying differentiation. […] The protocol utilized consisted of the benzidine staining method. Cells were seeded at 1×10^4 ml and incubated with inducers in Coster Culture Clusters ([…]) for 5 days. On the 5th day, two hundred (200) μl aliquots of cells were mixed with 100 μl of 0.2% benzidine dihydrochloride in 0.5N acetic acid with 1% of 30% H2 O2. Cells that stained blue were scored in a hemacytometer as a % of total cell number.
as §1

Assay [3] deals with T2, peripheral binding site on thymoma cells (Mus musculus, UniProt P50637).
T2 construct: host or cells: AKR mouse thymoma line BW 5147.6.1.4.Oua^r.1; (washed cells in BGS buffer)
Put plainly: Inhibition of tritiated diazepam binding to thymoma cells.

The test system of another assay is Swiss 3T3 cells. The following applies: Clarke and Ryan, Nature 287, 160-161 (1980), read-out: ED50 (inhibition of proliferation); cited from earlier work.
Assay [4] has as its target T2, peripheral binding site on thymoma cells. Put plainly: Binding of tritiated 7-chloro-5-(4-chlorophenyl)-1,3-dihydro-1-methyl-2H-1,4-benzodiazepin-2-one to thymoma cells (saturation, association, dissociation). Here is the method: Thymoma cells, AKR mouse thymoma line, BW 5147.6.1.4.Oua^r.1.(Cell Distribution Center, Salk Institute, San Diego, Calif.), were grown in Iscove's Modified Dulbecco's Medium (IMDM) containing 5 percent fetal calf serum, collected by centrifugation at 100×g and washed in Balanced Glucose Salt (BGS) buffer, the composition of which is: KCl, 5.0 mM; NaCl, 120.0 mM; Na2 HPO4, 5.0 mM; Tris, 5.0 mM; CaCl2, 0.6 mM; MgSO4, 1.0 mM and glucose, 5.5 mM with a final pH of 7.4. Incubation and binding of tritiated 7-chloro-5-(4-chlorophenyl)-1,3-dihydro-1-methyl-2H-1,4-benzodiazepin-2-one to thymoma cells was carried out in BGS buffer at 0° C. for 40 minutes with the indicated concentrations of labeled ligand. To assay the binding, the rapid filtration method was utilized as outlined in the article of Taniguchi et al., Life Science, 27, 171-178 (1980) and 10 μM of unlabeled diazepam was used as the competitive inhibitor of binding to determine the nonspecific binding. A Saturation and Scratchard plot of the binding data using least square fit to define the regression line (r=0.97) was utilized (FIG. 1 and Insert).

The mark [5] stands for this setting: FEL cells, compounds 1-12, read-out: IC50 (inhibition of binding to FEL cells).
The mark [6] stands for this setting: stereoisomers, equivalent IC50's, read-out: IC50.
The mark [7] stands for this setting: FEL cells, compounds 13-16, in μM, read-out: IC50 (inhibition of binding to FEL cells).

T2 sequence (P50637 whole entry): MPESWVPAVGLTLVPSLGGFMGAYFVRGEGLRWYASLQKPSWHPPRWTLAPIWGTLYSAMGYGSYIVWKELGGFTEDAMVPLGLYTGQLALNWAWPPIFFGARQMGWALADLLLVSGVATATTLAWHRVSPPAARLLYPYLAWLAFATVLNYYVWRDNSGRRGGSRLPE
T1 sequence (P50637 whole entry): as above

For the compound `CN1C(=O)CN=C(c2ccc(O)cc2)c2cc(Cl)ccc21` [Compound 2, 7-chloro-1,3-dihydro-5-(4-hydroxyphenyl)-1-methyl-2H--1,4-benzodiazepin-2-one], the IC50 in assay [1] (setting [5]) was 0.1 µM. Besides, the EC50 in assay [2] worked out at 20000 nM.
Consider `C[C@H]1N=C(c2ccccc2F)c2cc([N+](=O)[O-])ccc2N(C)C1=O` [Compound 9, (-)-5-(2-fluorophenyl)-1,3-dihydro-1,3-dimethyl-7-nitro-2H--1,4-benzodiazepin-2-one], for which the IC50 in assay [1] (setting [5]) amounted to 1.04 µM. For the same compound, the IC50 in assay [1] (setting [6]) is about 1 µM. Moreover, in assay [2], the “induction of differentiation (in words)” value is “moderately active” and the EC20 came to 86000 nM.
Regarding `CN1C(=O)CN=C(c2ccc(Cl)cc2)c2cc(Cl)ccc21` [Compound 10, 7-chloro-5-(4-chlorophenyl)-1,3-dihydro-1-methyl-2H--1,4-benzodiazepin-2-one], in assay [1] (setting [5]), the IC50 turned out to be 0.006 µM. Moreover, the EC20 in assay [2] turned out to be 28000 nM. Besides, the “inhibition of tritiated diazepam binding” value in assay [3] (200 nM unlabeled compound) was “completely inhibit the binding of tritiated diazepam”.
With `O=C1CN=C(c2ccccc2Cl)c2cc([N+](=O)[O-])ccc2N1` [clonazepam, reference compound], the “inhibition of tritiated diazepam binding” value in assay [3] (10 μM final concentration) was “did not inhibit diazepam binding”.
Consider `CN1C(=O)CN=C(c2ccccc2F)c2cc([N+](=O)[O-])ccc21` [Compound 13, 5-(2-fluorophenyl)-1,3-dihydro-1-methyl-7-nitro-2H--1,4-benzodiazepin-2-one], for which the IC50 in assay [1] (setting [7]) came to 0.08 µM. For the same compound, the EC10 in assay [2] worked out at 32000 nM.
Regarding `CN1C(=O)CN=C(c2ccc(Cl)cc2)c2ccccc21` [Compound 8, 5-(4-chlorophenyl)-1-methyl-3H--1,4-benzodiazepin-2(1H)--one], in assay [1] (setting [5]), the IC50 came out at 0.054 µM. The EC20 in assay [2] is 30000 nM.
The like results for `CN1C(=O)CN=C(c2ccc(F)cc2)c2ccccc21` [Compound 12, 1-methyl-5-(4-fluorophenyl)-3H--1,4-benzodiazepin-2(1H)--one] were, in that order, 0.327 µM and 100000 nM.
For the compound `CN1C(=O)CN=C(c2ccccc2)c2ccccc21` [Compound 6, 1,3-dihydro-1-methyl-5-phenyl-2H--1,4-benzodiazepin-2-one], the IC50 in assay [1] (setting [5]) is 0.704 µM. The EC50 in assay [2] amounted to 80000 nM.
Turning to `C[C@@H]1N=C(c2ccccc2F)c2cc([N+](=O)[O-])ccc2N(C)C1=O` [Compound 1, (+)-5-(2-fluorophenyl)-1,3-dihydro-1,3-dimethyl-7-nitro-2H--1,4-benzodiazepin-2-one], the IC50 in assay [1] (setting [5]) is 1.1 µM. Also, in assay [1] (setting [6]), the IC50 is about 1 µM. In assay [2], the “induction of differentiation (in words)” value is given as “most potent inducer tested” and the EC50 is 9000 nM.
With `CN1C(=O)CN=C(c2ccc(Cl)cc2)c2cc([N+](=O)[O-])ccc21` [Compound 14, 5-(4-chlorophenyl)-1-methyl-7-nitro-3H--1,4-benzodiazepin-2(1H)--one], the IC50 in assay [1] (setting [7]) was 0.034 µM. For the same compound, in assay [2], the EC10 was 60000 nM.
For `CN1C(=O)CN=C(c2ccc(Cl)cc2)c2cc(F)ccc21` [Compound 7, 5-(4-chlorophenyl)-7-fluoro-1-methyl-3H--1,4-benzodiazepin-2(1H)--one], in assay [1] (setting [5]), the IC50 came out at 0.013 µM. Moreover, the EC20 in assay [2] was determined as 34000 nM.
Turning to `CN1C(=O)CN=C(c2ccccc2)c2cc(Cl)ccc21` [Compound 4, diazepam, reference compound], the IC50 in assay [1] (IC50 (inhibition of binding to FEL cells), FEL cells, compounds 1-12) was 0.079 µM; in the assay with Swiss 3T3 cells it was about 30000 nM. Also, the EC50 in assay [2] was 55000 nM.
For `CN1C(=O)C(O)N=C(c2ccccc2)c2cc(Cl)ccc21` (stereo not drawn) [Compound 5, 7-chloro-1,3-dihydro-3-hydroxy-1-methyl-5-phenyl-2H--1,4-benzodiazepin-2-one], in assay [1] (setting [5]), the IC50 amounted to 0.236 µM. Besides, in assay [2], the EC50 came to 80000 nM.
The like results for `COc1ccc(C2=NCC(=O)N(C)c3ccc(Cl)cc32)cc1` [Compound 3, 7-chloro-5-(4-methoxyphenyl)-1-methyl-3H--1,4-benzodiazepin-2-one] were, in that order, 0.015 µM and 33000 nM.
Consider `CN1C(=O)CN=C(c2ccccc2Cl)c2ccccc21` [Compound 15, 5-(2-chlorophenyl)-1-methyl-3H--1,4-benzodiazepin-2(1H)--one], for which the IC50 in assay [1] (setting [7]) was 0.175 µM. Also, in assay [2], the EC10 turned out to be 60000 nM.
Usually Kd stands for the free concentration of one partner at which half of the binding sites on the other are occupied at equilibrium, for simple one-to-one binding. Lower therefore signals a tighter complex. With `CN1C(=O)CN=C(c2ccc(Cl)cc2)c2cc(Cl)ccc21` [7-chloro-5-(4-chlorophenyl)-1,3-dihydro-1-methyl-2H-1,4-benzodiazepin-2-one], the Kd in assay [4] was 4.4 ± 1.1 nM. The “time of incubation to reach binding plateau” value in assay [4] (0° C.) amounted to 30 min. In assay [4] (saturation plot, BGS buffer, 0° C., 40 minutes, mean±s.e., n=5), the “maximum amount of ligand bound (Bmax)” value was 477±98 fmoles per 10^6 cells.
For the compound `CN1C(=O)C(O)N=C(c2ccc(Cl)cc2)c2cc(Cl)ccc21` (stereo not drawn) [Compound 11, 7-chloro-5-(4-chlorophenyl)-3-hydroxy-1,3-dihydro-1-methyl-2H--1,4-benzodiazepin-2-one], in assay [1] (setting [5]), the IC50 came to 0.02 µM. The EC20 in assay [2] was found to be 45000 nM.
For the compound `CN1C(=O)CN=C(c2ccccc2Cl)c2cc(Cl)ccc21` [Compound 16, 7-chloro-5-(2-chlorophenyl)-1,3-dihydro-1-methyl-2H--1,4-benzodiazepin-2-one], the IC50 in assay [1] (setting [7]) was determined as 0.011 µM. Besides, the EC10 in assay [2] came out at 60000 nM.

Values taken from US4898861A, “Method for inhibiting the proliferation of tumor cells” (Hoffmann-La Roche Inc., priority 1988, dated 1990).
